From ChEMBL document CHEMBL3507680, “University of Dundee, Gates Library screen for HepG2 cell viability” come the findings set out here.

The series is described as follows: Human HepG2 cell viability assay in 384 well format. Also on record: dose 125 nL, time 70.5 hour; cytotoxicity at 70.5 h: concentration not given beside the values. In kind it is toxicity, cell-based. As to conditions: HepG2 cells, read-out: Inhibition.
Turning to `CCOc1cccc(C(=O)Nc2ccncc2)c1`, the cytotoxicity at 70.5 h is -8.85%.

Regarding `Cc1nc2n(n1)CC(NCc1nc3ccccc3o1)CC2` (stereo not drawn), the cytotoxicity at 70.5 h was 1.97%.

For the compound `COc1ncccc1CNC(=O)c1cc(F)cc(Br)c1`, the cytotoxicity at 70.5 h was -2.19%.

For `CC(C)(C)C(Cn1ccnc1)NC(=O)NCc1ccco1` (stereo not drawn), the cytotoxicity at 70.5 h is -7.73%.

Regarding `Cc1cc(C)cc(N(CCC#N)C(=O)CN2CCCC2c2cccs2)c1` (stereo not drawn), the cytotoxicity at 70.5 h worked out at 25.9%.

With `COc1ccc(CNC(=O)NC2CCN(CC3CCCC3)CC2)cn1`, the cytotoxicity at 70.5 h was -9.34%.

`COc1cc(CNC(=O)Nc2nncs2)ccc1O`: the cytotoxicity at 70.5 h was -1.98%.

As for `O=C1CCN(C(=O)C2(c3ccc(F)cc3)CCOCC2)CCN1`, the cytotoxicity at 70.5 h was -8.05%.

With `CCc1noc(C)c1C(=O)NCc1c(C)nn(CCOC)c1C`, the cytotoxicity at 70.5 h was -4.73%.

In the case of `Cc1nc(CNC2CCc3ncnn3C2)oc1C` (stereo not drawn), the cytotoxicity at 70.5 h was -5.86%.

As to `Cc1nc2n(n1)CC(NCc1nc(C)c(C)o1)CC2` (stereo not drawn), the cytotoxicity at 70.5 h is -0.801%.

Turning to `CC(NC(=O)c1cccc(CN2CCN(C)CC2)c1)c1nccs1` (stereo not drawn), the cytotoxicity at 70.5 h turned out to be 1.61%.

On to `CC(Cc1ccccc1Br)NC(=O)CCS(C)(=O)=O` (stereo not drawn), for which the cytotoxicity at 70.5 h amounted to 27.4%.

In the case of `COC(=O)CCC(=O)NC(C)Cc1ccccc1Br` (stereo not drawn), the cytotoxicity at 70.5 h is -4.19%.

Take `CNS(=O)(=O)Cc1cccc(CNc2ccc(Cl)cn2)c1`: the cytotoxicity at 70.5 h amounted to 4.33%.

Consider `CN(Cc1cc(Br)cn1C)C(=O)c1ccon1`, for which the cytotoxicity at 70.5 h is -2.35%.

Take `COc1ccc(CNC(=O)N2CCCC(Nc3ccccc3)C2)cn1` (stereo not drawn): the cytotoxicity at 70.5 h is -7.17%.

For `Cc1ccc(S(=O)(=O)N2CC[C@@H](O)C2)c(F)c1`, the cytotoxicity at 70.5 h is -2.84%.

On to `Cc1noc(NCc2cc(F)ccc2F)n1`, for which the cytotoxicity at 70.5 h is -3.22%.

For the compound `COCCOc1ccc(NC(=O)N(CC2CCOC2)C2CC2)cn1` (stereo not drawn), the cytotoxicity at 70.5 h is -2.98%.

Take `CCN(C)CC1CCN(S(=O)(=O)c2cc(C)c(F)cc2Cl)C1` (stereo not drawn): the cytotoxicity at 70.5 h was -4.14%.

Regarding `CCc1nc2n(n1)CC(NCc1nc(C)c(C)o1)CC2` (stereo not drawn), the cytotoxicity at 70.5 h is -5.85%.

`Cn1cc(C2CCCN2CC(=O)N(CCC#N)Cc2ccco2)cn1` (stereo not drawn): the cytotoxicity at 70.5 h stood at 2%.

For `CCc1nnc(C2Cc3ccccc3CN2Cc2nc(C3CC3)no2)o1` (stereo not drawn), the cytotoxicity at 70.5 h is -5.61%.

Consider `c1cncc(CN2CCC(c3n[nH]c(C4CC4)n3)CC2)c1`, for which the cytotoxicity at 70.5 h stood at 33.7%.

Turning to `O=C(c1ccoc1)N1CCC(NCc2ccccc2-n2ccnc2)CC1`, the cytotoxicity at 70.5 h is 9.01%.

For `CC(C)CN1CC(C(=O)NCCc2ccc(OC(F)F)cc2)CC1=O` (stereo not drawn), the cytotoxicity at 70.5 h stood at 9.73%.

On to `O=C(CCNc1ncccn1)NCCc1ccc(Cl)s1`, for which the cytotoxicity at 70.5 h is -3.42%.

On to `O=C(CCNc1ncccn1)NCc1csc(Br)c1`, for which the cytotoxicity at 70.5 h was found to be 11.5%.

`CCS(=O)(=O)N1CCC(Nc2c(F)cc(C#N)cc2F)CC1`: the cytotoxicity at 70.5 h was -9.63%.

`CCCS(=O)(=O)N1CCC(Nc2c(F)cc(C#N)cc2F)CC1`: the cytotoxicity at 70.5 h was -2.66%.

For the compound `Cc1nc(S(=O)(=O)NCCC(=O)NCc2ccc(C#N)cc2)cn1C`, the cytotoxicity at 70.5 h is -0.237%.

In the case of `CCN(CC)c1ccc(CNC(=O)c2cnc(C)cn2)cn1`, the cytotoxicity at 70.5 h was -4.04%.

In the case of `CNC(=O)C1CCN(C(=O)NCc2ccc(C)n2C)CC1`, the cytotoxicity at 70.5 h is -4.71%.

For `Nc1cc2c(nn1)CCN(C(=O)Cc1ccc3c(c1)CCCC3)C2`, the cytotoxicity at 70.5 h is -2.05%.

`CN(C)c1cc2c(nn1)CCN(C(=O)Cc1ccc3c(c1)CCO3)C2`: the cytotoxicity at 70.5 h was -5.69%.

Turning to `NC(=O)CC1CCN(C(=O)NCC2(c3ccccc3F)CC2)CC1`, the cytotoxicity at 70.5 h was determined as 0.188%.

In the case of `Nc1cc2c(nn1)CCN(C(=O)Cc1ccc3c(c1)CCO3)C2`, the cytotoxicity at 70.5 h was 9.71%.

Take `Nc1cc2c(nn1)CCN(C(=O)CCc1ccc3c(c1)OCO3)C2`: the cytotoxicity at 70.5 h was -6.15%.

Consider `O=C(CCc1ccsc1)NCc1ccnc(OC2CCOCC2)c1`, for which the cytotoxicity at 70.5 h was -5.9%.

As for `Cc1c(NC(C)C(C)C)cccc1C(=O)NCc1nnc(C)n1C` (stereo not drawn), the cytotoxicity at 70.5 h was 8.29%.

For `Cc1ccc(F)cc1C(=O)OCC1CCCN1C(N)=O` (stereo not drawn), the cytotoxicity at 70.5 h is -1.91%.

Regarding `Cc1c(F)cccc1NC(=O)N(C(C)CS(C)(=O)=O)C1CC1` (stereo not drawn), the cytotoxicity at 70.5 h is -4.32%.

As for `CC(C)Cc1cc(NC(=O)N2CCC(Oc3cccnc3)C2)n(C)n1` (stereo not drawn), the cytotoxicity at 70.5 h is 5.38%.

As for `Cc1noc(-c2cccnc2N2CCN(c3cnn(C)c3)CC2)n1`, the cytotoxicity at 70.5 h was -12%.

In the case of `Cn1cc(CCC(=O)NS(=O)(=O)N2CCCc3ccccc32)cn1`, the cytotoxicity at 70.5 h is -8.12%.

For `O=C(NCCc1ccsc1)c1ccoc1`, the cytotoxicity at 70.5 h is 5.67%.

As to `CN(CCn1nc2ccccn2c1=O)CC(=O)N(C)C1CCCCC1`, the cytotoxicity at 70.5 h turned out to be 2.32%.

Turning to `Cc1nc(CNC(=O)NC2CCCN(c3ncccn3)C2)cs1` (stereo not drawn), the cytotoxicity at 70.5 h was -14.1%.

As for `COC(=O)C(C)(C)NC(=O)C1CC(=O)N(CC2CC2)C1` (stereo not drawn), the cytotoxicity at 70.5 h was -6.45%.

Take `Cc1nc2cc(O)nn2c(C)c1CCC(=O)N(C)Cc1ccccc1`: the cytotoxicity at 70.5 h stood at 2.7%.

As to `Cc1ccc(C(=O)N(C)CCOc2ccccc2F)c(=O)[nH]1`, the cytotoxicity at 70.5 h is -5.2%.

As to `COc1c(CNCc2cccnc2N2CCCCC2)c(C)nn1C`, the cytotoxicity at 70.5 h was 2.37%.

Regarding `Cc1nn(C)c(N(C)C)c1CNCc1cccnc1N1CCOCC1`, the cytotoxicity at 70.5 h was -8.33%.

`Cc1nnc2n1CCN(C(=O)c1cn(-c3ccccc3)nn1)C2`: the cytotoxicity at 70.5 h is -1.52%.

For `Cc1nc2cc(O)nn2c(C)c1CCC(=O)N(C)CCC(C)C`, the cytotoxicity at 70.5 h was -7.92%.

`CCOc1ccc(NC(=O)N2CCOC(C(N)=O)C2)cc1Cl` (stereo not drawn): the cytotoxicity at 70.5 h was found to be 2.49%.

Turning to `Cc1ccc(NC(=O)N2CCOC(C(N)=O)C2)cc1C(F)(F)F` (stereo not drawn), the cytotoxicity at 70.5 h is -4.03%.

As for `COc1ccc(OC)c(C(=O)N2CCC(Nc3cccnc3)CC2)c1`, the cytotoxicity at 70.5 h was -0.864%.

On to `CCOc1ccc(NC(=O)N2CCOC(C(N)=O)C2)cc1C` (stereo not drawn), for which the cytotoxicity at 70.5 h was 1.77%.

Regarding `CN1N=C(C(=O)N(Cc2ccco2)C2CCCC2)CCC1=O`, the cytotoxicity at 70.5 h was -9.57%.

With `O=C(Cc1ccc2c(c1)CCC2)N1CCCC1Cn1cccn1` (stereo not drawn), the cytotoxicity at 70.5 h stood at 26.4%.

As to `CN(CCN1CCOCC1)C(=O)CCCOCCc1ccccc1`, the cytotoxicity at 70.5 h was found to be 13.1%.

Regarding `CN(Cc1ccc(F)cc1)S(=O)(=O)N1CCOCC1`, the cytotoxicity at 70.5 h amounted to 6.44%.

Turning to `O=C(NCc1ccccn1)NC1CCCN(c2ncccn2)C1` (stereo not drawn), the cytotoxicity at 70.5 h is -9.45%.

Take `O=C(NCc1ccoc1)NC1CCN(c2ncccn2)CC1`: the cytotoxicity at 70.5 h amounted to 16.1%.

Regarding `CNC(=O)c1ccc(CNC(=O)c2ccc(Cl)cc2F)cc1`, the cytotoxicity at 70.5 h was -11.8%.

In the case of `CCC(=O)Nc1ccc2c(ccn2CCOC)c1`, the cytotoxicity at 70.5 h was -8.06%.

Take `COC1CCN(C(=O)c2cc(-c3ccc(Cl)cc3)on2)CC1`: the cytotoxicity at 70.5 h was -8.24%.

With `CCOC1CCN(C(=O)c2cc(-c3ccc(Cl)cc3)on2)CC1`, the cytotoxicity at 70.5 h is -5.56%.

As for `COCCn1ccc(NC(=O)Nc2ccccn2)n1`, the cytotoxicity at 70.5 h was -10%.

In the case of `CC1CCC(NC(=O)Nc2ccc(CC(=O)N(C)C)cc2)CC1` (stereo not drawn), the cytotoxicity at 70.5 h is -5.4%.

Take `CN(C(=O)Cc1ccc(NC(=O)NC2CC2)cc1)c1ccccc1`: the cytotoxicity at 70.5 h was 19.9%.

Consider `COCCn1ccc(NC(=O)Nc2ccccc2)n1`, for which the cytotoxicity at 70.5 h was -2.83%.

For `COCCn1ccc2cc(NC(=O)N(C)C(C)CSC)ccc21` (stereo not drawn), the cytotoxicity at 70.5 h stood at 1.74%.

`O=C(c1cc2ccccc2c(=O)[nH]1)N1CCN(CCO)CC1`: the cytotoxicity at 70.5 h is -4.06%.

Regarding `O=C(Nc1ccc2ncccc2c1)C1CC(=O)N(Cc2ccccn2)C1` (stereo not drawn), the cytotoxicity at 70.5 h is -4.54%.

`CC(NC(=O)c1ccnn1C)c1ccc(OCC2CC2)c(F)c1` (stereo not drawn): the cytotoxicity at 70.5 h is 10.9%.

As for `COc1ccc(S(=O)(=O)NC(=O)c2c(C)noc2C(C)C)cc1C`, the cytotoxicity at 70.5 h is -5.8%.

With `CCN(Cc1cccc(F)c1)S(=O)(=O)N1CCOCC1`, the cytotoxicity at 70.5 h stood at 0.239%.

In the case of `CN(C(=O)Cc1ccc2c(c1)OCCO2)C1CCCCC1`, the cytotoxicity at 70.5 h is -1.71%.

Turning to `Cc1ccccc1OCCCC(=O)N(C)CCC#N`, the cytotoxicity at 70.5 h was -5.57%.

For `CCc1nccn1C1CCCN(C(=O)c2ccc(N(C)C)nn2)C1` (stereo not drawn), the cytotoxicity at 70.5 h is -7.7%.

For `CCc1nccn1C1CCCN(C(=O)c2ccn(-c3ccccc3)n2)C1` (stereo not drawn), the cytotoxicity at 70.5 h was -1.19%.

On to `COc1ccc(N2CCCN(C(=O)Cc3csc(C)n3)CC2)cc1`, for which the cytotoxicity at 70.5 h came out at 0.0529%.

In the case of `CC(C(=O)N1CCCC1)N1CCCN(C(=O)Oc2ccccc2)CC1` (stereo not drawn), the cytotoxicity at 70.5 h was -10.6%.

For the compound `CCn1c(C)cc(C(=O)N2CCCC(n3ccnc3C)C2)c1C` (stereo not drawn), the cytotoxicity at 70.5 h was -6.2%.

As to `NCC(c1ccc(Cl)cc1)N1CCc2sccc2C1` (stereo not drawn), the cytotoxicity at 70.5 h is 7.32%.

On to `Cc1ccc(C(=O)NCCCNS(C)(=O)=O)cc1C`, for which the cytotoxicity at 70.5 h was -9.61%.

As to `CCOC(=O)c1c(NC(=O)CN2CCN(C(C)=O)CC2)sc(C)c1C`, the cytotoxicity at 70.5 h is -13.3%.

With `Cc1ccc(C(=O)NCCCN(C)S(C)(=O)=O)cc1-n1cccc1`, the cytotoxicity at 70.5 h was -8.22%.

Turning to `CC(C)C(C)NC(=O)Nc1ccc(CC(N)=O)cc1` (stereo not drawn), the cytotoxicity at 70.5 h is -3.59%.

`Cc1ccc(C(=O)NS(C)(=O)=O)cc1-n1cccc1`: the cytotoxicity at 70.5 h is -6.32%.

Regarding `Cc1ccc(C(=O)N(C)Cc2nccn2CC(F)(F)F)cn1`, the cytotoxicity at 70.5 h was -13.5%.

As for `COCCNC(=O)NC(C)COc1ccc(F)cc1F` (stereo not drawn), the cytotoxicity at 70.5 h is -0.107%.

As for `Cc1cnn(CC2CCCCN2C(=O)Cc2c(C)noc2Cl)c1` (stereo not drawn), the cytotoxicity at 70.5 h was determined as 24.1%.

`Cc1cnn(CC2CCCCN2C(=O)Cc2c(C)noc2C)c1` (stereo not drawn): the cytotoxicity at 70.5 h is -9.25%.

Regarding `O=C(CN1CCCC1CCCO)NCc1ccccn1` (stereo not drawn), the cytotoxicity at 70.5 h turned out to be 1.57%.

As for `COc1cccc2c1OCC(NC(=O)NCCC(N)=O)C2` (stereo not drawn), the cytotoxicity at 70.5 h is -7.75%.

As for `Cc1cc(C)n(CCCNC(=O)C(C)NC(=O)CC2CCCCC2)n1` (stereo not drawn), the cytotoxicity at 70.5 h was -5.96%.

As for `CCCc1n[nH]c(C2CN(C(=O)c3cc(C4CC4)on3)CCO2)n1` (stereo not drawn), the cytotoxicity at 70.5 h was -10.9%.

Take `CNS(=O)(=O)c1cc(C(=O)NC2COc3ccccc32)cc(C)c1C` (stereo not drawn): the cytotoxicity at 70.5 h is -13.5%.

`O=C(c1ccoc1)N1CCC(NCc2ccccc2Cl)CC1`: the cytotoxicity at 70.5 h is -8.33%.
